For the test, the system named is M. tuberculosis H37Rv growth inhibition. Briefly: M. tuberculosis H37Rv growth inhibitors, H37Rv strain (AID 1626). The following applies: for IC90: measured here: IC90 against H37Rv; for CC50: measured here: Vero cell cytotoxicity.

Structures are written as SMILES.

In the case of `CC1C(c2ccccc2)N(C)C(c2ccccc2)CC1(O)c1ccccc1` (centres undefined), the IC50 is 5.85 µM, the 90% effect concentration (IC90) came to 6.61 µM and the half-maximal cytotoxic concentration (CC50) is greater than 40 µM.
Turning to `O=C(Oc1ccc(/C=N/O)cc1)c1ccccc1Cl`, the half-inhibitory concentration (IC50) was 28.5 µM and the IC90 was greater than 100 µM.
Molecule `CCOc1ccc(NC(C(=O)Nc2cccc(C(C)=O)c2)c2ccccc2)cc1` (centres undefined) came in with a concentration for an effect of 90% (IC90) greater than 100 µM.
Turning to `CCOC(=O)COc1ccc2ccccc2c1/C=C/[N+](=O)[O-]`, the IC50 is 3.01 µM, the IC90 stood at 3.47 µM and the 50% cytotoxic concentration (CC50) is 39.2 µM.
For the molecule `O=C(COC(=O)c1ccc(Cl)s1)c1ccc[nH]1`, the IC50 was 8.14 µM and the IC90 amounted to 16.7 µM.
Take `COc1ccccc1-c1nnc(SCC(=O)Nc2cc(C)on2)o1`: the IC50 is 10.4 µM and the IC90 amounted to 16.5 µM.
For `CCn1cc(CNC(=O)c2cc([N+](=O)[O-])c(C)c([N+](=O)[O-])c2)cn1`, in that order: 0.547 µM and 0.874 µM.
On the same counts, the results for `CCOC(=O)C(C)Sc1ncnc2c1nnn2-c1ccc(F)cc1` (centres undefined) are 2.47 µM and 21.6 µM.
Turning to `Cc1ccc(C(C(=O)Nc2ccc3c(c2)OCO3)N(C)C(=O)/C=C\c2ccc3c(c2)OCO3)cc1` (centres undefined), the IC50 was 45.5 µM and the IC90 was greater than 100 µM.
As to `O=C(Oc1ccc(Cl)cc1)c1ccc(COC(=O)c2cnccn2)cc1`, the IC50 is 6.54 µM, the IC90 was found to be 9.41 µM and the CC50 was greater than 40 µM.
On the same counts, the results for `COc1cnc(-c2ccccn2)nc1Sc1ccccc1Cl` are 1.94 µM, 6.23 µM and 7.16 µM.
For `COc1cc(OC)cc(C(=O)Nc2nc3ccccc3[nH]2)c1`, in that order: 15.9 µM, greater than 100 µM and greater than 40 µM.
Regarding `Cc1ccc(NC(=O)/C=C/c2ccc([N+](=O)[O-])s2)cc1`, the half-maximal inhibitory concentration (IC50) is 45.9 µM, the IC90 is greater than 100 µM and the CC50 is greater than 40 µM.
In the case of `CCOC(=O)CSc1nnc(-c2ccc(OC)cc2OC)o1`, the IC50 was 1.24 µM and the concentration for an effect of 90% (IC90) came to 2.38 µM.
Consider `COc1ccc(C)cc1N=Nc1ccc(O)c2ncccc12`, for which the half-maximal inhibitory concentration (IC50) is 31.8 µM, the IC90 was greater than 100 µM and the CC50 worked out at 2.01 µM.
For `Cc1ccc(OCCN2CCN(CC(O)Cn3c4ccccc4c4ccccc43)CC2)cc1` (centres undefined), in that order: 9.21 µM, 11.4 µM and 21.5 µM.
Molecule `CCOC(=O)c1ccc(N/C=C2\CCCCC2=O)cc1` displayed an IC90 greater than 100 µM.
`Cc1cc(=O)[nH]c(-n2nc(C)cc2C)n1`: the IC50 is 1.42 µM, the IC90 worked out at 2.43 µM and the CC50 was greater than 40 µM.
Take `CCN(CCCCN1C(=O)c2ccccc2C1=O)c1ccc2c(c1)C(=O)N(C)C2=O`: the IC50 was 12 µM and the IC90 was greater than 100 µM.
Regarding `Cn1ncc2c(Nc3cccc(Cl)c3)nc(Nc3cccc(Cl)c3)nc21`, the IC50 is 11.7 µM, the IC90 stood at 23.6 µM and the CC50 was 26.9 µM.
Regarding `O=C(Nc1cc(C(F)(F)F)cc(C(F)(F)F)c1)Nc1cnn(-c2ccc([N+](=O)[O-])cc2)c1C(F)(F)F`, the IC50 is 0.676 µM, the IC90 came out at 0.938 µM and the CC50 amounted to 2.76 µM.
As for `O=C(Nc1nc2ccccc2[nH]1)c1cccc([N+](=O)[O-])c1`, the concentration for an effect of 90% (IC90) is greater than 100 µM.
Take `COc1ccc(C(CCN2CCCCC2)c2c(OC)cc(OC)c3c(-c4ccccc4)cc(=O)oc23)cc1` (centres undefined): the IC50 was 7.16 µM, the IC90 worked out at 10.9 µM and the CC50 is 16 µM.
In the case of `CC(C)(C)C(=O)Nc1ccc(-c2nc3ccccc3c(=O)o2)cc1`, the IC50 was 9.98 µM and the IC90 amounted to 20.2 µM.
As to `CCOc1ccc(NC2c3ccccc3C(=O)N2Cc2ccco2)cc1` (centres undefined), the IC50 was 19.1 µM and the IC90 was greater than 100 µM.
With `Cc1ccc(C2=Nc3ccccc3SC(c3cccc([N+](=O)[O-])c3)C2)cc1` (centres undefined), the IC50 is 3.71 µM, the IC90 came to 5.74 µM and the CC50 amounted to 33 µM.
With `CC(C)(C)Nc1nc(NC(C)(C)C)nc(-n2ccnc2)n1`, the IC50 was 11.4 µM and the IC90 is 13.1 µM.
Take `COc1ccc(NC(=O)c2ccc(COCC(F)(F)C(F)F)cc2)cc1`: the IC90 was greater than 100 µM.
Consider `CCCCOC(=O)c1ccc(N=Nc2c(C)c(C#N)c(O)[nH]c2=O)cc1`, for which the IC50 was less than 0.195 µM and the 90% effect concentration (IC90) is greater than 100 µM.
For `CC(=O)c1ccc(NC(=O)c2ccc(CNc3c(N4CCOCC4)c(=O)c3=O)cc2)cc1`, in that order: 5.81 µM and 6.61 µM.
For the molecule `COC(=O)/C(=C1/Oc2cc(C)oc(=O)c2S1)C(F)(F)F`, the IC50 is 0.698 µM, the IC90 was 23.8 µM and the CC50 worked out at 6.33 µM.
In turn, `Clc1ccc(-c2ccc(C=Nc3ccc(N4CCOCC4)cc3)o2)c(Cl)c1` gave an IC90 greater than 100 µM.
In the case of `CCOC(=O)COc1ccc2c(=O)cc(-c3ccccc3)oc2c1`, the IC50 is less than 0.195 µM and the IC90 is 0.963 µM.
The molecule `O=C(CN1C(=O)C2C3CCC(C3)C2C1=O)Oc1ccc2ccccc2c1` (centres undefined) had a 90% effect concentration (IC90) greater than 100 µM.
Consider `CC(C)(C)c1cc(NCc2ccccn2)n2ncc(-c3ccc(Cl)cc3)c2n1`, for which the IC50 was 0.655 µM, the IC90 was 6.15 µM and the half-maximal cytotoxic concentration (CC50) was greater than 40 µM.
On to `CCCCC(=O)OCC(=O)Nc1ccc(SC(F)F)cc1`, for which the IC90 is greater than 100 µM.
In the case of `CC1CCN(C(=O)COC(=O)CCc2c[nH]c3ccccc23)CC1`, the IC50 was 0.34 µM and the IC90 is greater than 100 µM.
For the molecule `CCOC(=O)C(Cc1ccccc1)C(=O)Nc1cccc2ccccc12` (centres undefined), the half-inhibitory concentration (IC50) is 4 µM and the concentration for an effect of 90% (IC90) is 12.7 µM.
Regarding `Cc1ccc(C(=O)/C=C\Nc2ccc(C)c(C)c2)cc1`, the IC90 was greater than 100 µM.
For `CCCCOc1ccc(C(=O)N/C(=C/C=C/c2ccccc2)C(=O)N2CCOCC2)cc1`, the IC50 was 13.9 µM, the concentration for an effect of 90% (IC90) was greater than 100 µM and the CC50 is greater than 40 µM.
For `COC(=O)CCCn1c(C)cc(C(=O)CCl)c1C`, in that order: 5.45 µM, 18.4 µM and 21.1 µM.
As for `CCCCNC(=O)COC(=O)c1cc(Br)ccc1Cl`, the 50% inhibitory concentration (IC50) is 4.35 µM and the IC90 was determined as 10.5 µM.
As to `Cc1[nH]n2c(=O)c3c(nc2c1-c1ccccc1)CCCC3`, the IC50 was 2.89 µM, the IC90 was 4.05 µM and the CC50 was found to be 22.8 µM.
With `Cc1cc(C)n(C(=O)c2ccc([N+](=O)[O-])cc2[N+](=O)[O-])n1`, the IC50 is 7.05 µM and the IC90 turned out to be 12.6 µM.
For `CCOC(=O)c1ccc(N/C=C/C(=O)c2ccc(OC)c(OC)c2)cc1`, in that order: 3.44 µM and greater than 100 µM.
With `CCOC(=O)c1ccc(N2CN=C3SCC(=O)N3C2)cc1`, the half-inhibitory concentration (IC50) is 11.9 µM and the IC90 is greater than 100 µM.
For `CCOC(=O)c1ccc(NC(=O)CCc2nc(-c3cccc(C)c3)no2)cc1`, in that order: 2.76 µM and greater than 100 µM.
For `Cc1ccc(-c2csc(NC(=O)CSc3nc4ccccc4c(=O)n3CCCN(C)C)n2)cc1`, the half-inhibitory concentration (IC50) was 7.67 µM, the IC90 was determined as 9.52 µM and the CC50 amounted to 12 µM.
On to `CCNc1nc(NCC)nc(-n2nc(C)cc2C)n1`, for which the IC50 was 5.04 µM and the IC90 came out at 18.4 µM.
Consider `Nc1[nH]n2c(=O)c3c(nc2c1N=Nc1ccc(Cl)cc1)CCCC3`, for which the IC50 is 10.7 µM, the IC90 came out at 21.5 µM and the 50% cytotoxic concentration (CC50) came out at 25.4 µM.
On to `CCOC(=O)c1ccc(NC(=O)Oc2cc(C)c(Cl)cc2C(C)C)cc1`, for which the IC50 was 11.4 µM and the IC90 was greater than 100 µM.
`N#Cc1c(N2CCN(C(=O)c3ccco3)CC2)nc(-c2ccccc2)c2c1CCCC2`: the IC50 was 9.52 µM, the IC90 came to 12.2 µM and the CC50 was 24.1 µM.
With `Oc1cccc(-c2nc3ccc4ccccc4c3c3c2CCC3)c1`, the IC50 is 16.8 µM, the concentration for an effect of 90% (IC90) was found to be 27 µM and the CC50 was greater than 40 µM.
For `Cc1ccc(-c2nn(-c3ccccc3)cc2C=O)o1`, the CC50 is greater than 40 µM.
As to `CCOC(=O)CC(=O)Nc1ccc(C(=O)OCC)cc1`, the IC50 is 10 µM and the IC90 was greater than 100 µM.
`CCOC(=O)CSc1nc(N)c(C#N)c(CC(C)C)c1C#N`: the IC50 was 1.44 µM and the IC90 stood at 8.77 µM.
As to `Oc1c(CN2CCc3ccccc3C2)cc(Cl)c2cccnc12`, the IC50 was 7.65 µM, the IC90 is 9.8 µM and the CC50 came out at 4.88 µM.
`Cc1sc(NC(=O)c2ccco2)c(C(c2ccccc2)N2CCC(C)CC2)c1C` (centres undefined) returned a CC50 greater than 40 µM.
In turn, `CCOC(=O)/C=C/C(=O)Nc1nccs1` had an IC90 greater than 100 µM.
`CCc1ccc(C2c3[nH]c4ccccc4c3CCN2C(=O)c2cc(C)nn2C)cc1` (centres undefined): the IC50 is 22.2 µM, the IC90 came out at 31.9 µM and the CC50 was greater than 40 µM.
For the molecule `Oc1ccccc1-c1nc(/C=C/c2ccccc2)nn1-c1ccccc1`, the IC50 was 16.3 µM and the IC90 was greater than 100 µM.
As for `O=C(Nc1nnc(C2=COCCO2)o1)c1ccc(Cc2ccccc2)cc1`, the IC50 is 4.49 µM, the IC90 was 10.6 µM and the CC50 was greater than 40 µM.
On the same counts, the results for `CC(C)c1nnc(NC(=O)c2c(O)c3cccc4c3n(c2=O)CCC4)s1` are 0.604 µM, 0.731 µM and 6.5 µM.
With `O=C(Nc1ccc(N2CCOCC2)c(Cl)c1)c1ccc([N+](=O)[O-])o1`, the IC50 was 7.54 µM, the IC90 was determined as 11.3 µM and the CC50 amounted to 3.3 µM.
`CCOC(=O)c1ccc(NC(=O)CCc2nc(-c3ccc(C)cc3)no2)cc1`: the IC50 is 1.36 µM, the IC90 was 12.4 µM and the CC50 is greater than 40 µM.
Take `OCCN(/C=N/c1nc(-c2ccc(Br)cc2)cs1)CCO`: the IC50 was 31.4 µM and the concentration for an effect of 90% (IC90) was greater than 100 µM.
For the molecule `Cc1cccc(-n2cc(CN(C)Cc3nccn3C)c(-c3cccc(F)c3)n2)c1`, the IC50 was 7.43 µM, the IC90 came out at 12.1 µM and the CC50 was greater than 40 µM.
Take `O=C(/C=C/c1ccco1)c1ccc(NC(=O)C23CC4CC(CC(C4)C2)C3)cc1`: the IC50 is less than 0.195 µM and the IC90 is greater than 100 µM.

One may read the IC50 as the midpoint of a concentration-inhibition curve. In general, IC90 refers to the concentration at which the effect reaches the 90% level. Read a low IC90 as an effect from little substance. As usually defined, the CC50 is the concentration that lowers cell viability or growth by half.

The values are drawn from PubChem BioAssay AID1626 (SRMLSC, 2009).
